Laboratory results as given in patent US9504675B2, “Alpha-ketoheterocycles and methods of making and using” (The Scripps Research Institute, priority 2011, dated 2016).

What follows are molecules tested against T1, recombinant rat FAAH (rFAAH) (Rattus norvegicus, UniProt P97612) (assay: Enzyme assay: inhibition of purified recombinant rat FAAH, 14C-oleamide hydrolysis, Ki by Dixon plot). Details: Ki, Table 2, (R)-enantiomer, 1,2,3,4-tetrahydronaphthalene C2 acyl side chain.
T1 construct: The truncated rat FAAH (rFAAH) was expressed in E. coli and purified; made in house; host or cells: Escherichia coli
T1 sequence (P97612 30-579 limits assumed): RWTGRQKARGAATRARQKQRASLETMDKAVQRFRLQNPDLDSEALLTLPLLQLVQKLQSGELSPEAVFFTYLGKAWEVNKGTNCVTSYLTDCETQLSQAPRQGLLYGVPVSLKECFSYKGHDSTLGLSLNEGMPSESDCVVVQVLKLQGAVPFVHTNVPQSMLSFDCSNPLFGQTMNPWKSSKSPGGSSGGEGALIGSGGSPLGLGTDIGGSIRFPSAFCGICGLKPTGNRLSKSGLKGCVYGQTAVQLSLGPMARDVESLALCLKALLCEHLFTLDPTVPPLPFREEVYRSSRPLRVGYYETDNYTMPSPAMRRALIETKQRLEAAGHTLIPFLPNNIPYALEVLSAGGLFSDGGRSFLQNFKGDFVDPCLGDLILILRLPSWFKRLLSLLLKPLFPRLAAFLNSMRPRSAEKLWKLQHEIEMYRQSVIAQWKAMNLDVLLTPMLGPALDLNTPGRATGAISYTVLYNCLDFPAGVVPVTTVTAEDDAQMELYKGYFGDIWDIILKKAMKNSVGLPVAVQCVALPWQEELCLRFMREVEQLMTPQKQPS
Type: biochemical
Procedure: Enzyme assays were performed at 20-23° C. with purified recombinant rat FAAH expressed in Escherichia coli or with solubilized COS-7 membrane extracts from cells transiently transfected with human FAAH cDNA (where specifically indicated) in a buffer of 125 mM Tris/1 mM EDTA/0.2% glycerol/0.02% Triton X-100/0.4 mM Hepes, pH 9.0.
^14C-labeled oleamide was prepared from ^14C-labeled oleic acid. The truncated rat FAAH (rFAAH) was expressed in E. coli and purified. The purified recombinant rFAAH was used in the inhibition assays unless otherwise indicated. The full-length human FAAH (hFAAH) was expressed in COS-7 cells as described, and the lysate of hFAAH-transfected COS-7 cells was used in the inhibition assays where explicitly indicated.
The inhibition assays were performed as follows. […] The enzyme reaction was terminated by transferring 20 μL of the reaction mixture to 500 μL of 0.1 N HCl at three different time points. The ^14C-labeled oleamide (substrate) and oleic acid (product) were extracted with EtOAc and analyzed by TLC as detailed. The Ki of the inhibitor was calculated using a Dixon plot as described (standard deviations are provided in the Supporting Information tables).

Structure (SMILES)	Ki
O=C(c1ncc(-c2ccccn2)o1)C1CCc2cc(Oc3ccccc3)ccc2C1 (single isomer, unassigned) [(R)-12, (6-Phenoxy-1,2,3,4-tetrahydronaphthalen-2-yl)(5-(pyridin-2-yl)oxazol-2-yl)methanone]	290 nM
O=C(c1ncco1)C1CCc2cc(-c3ccccc3)ccc2C1 (single isomer, unassigned) [(R)-3, Oxazol-2-yl(6-phenyl-1,2,3,4-tetrahydronaphthalen-2-yl)methanone]	460 nM
O=C(c1ncc(-c2ccccn2)o1)C1CCc2cc(OCc3ccccc3)ccc2C1 (single isomer, unassigned) [(R)-18, (6-(Benzyloxy)-1,2,3,4-tetrahydronaphthalen-2-yl)(5-(pyridin-2-yl)oxazol-2-yl)methanone]	300 nM
N#Cc1cnc(C(=O)C2CCc3cc(-c4ccccc4)ccc3C2)o1 (single isomer, unassigned) [(R)-5, 2-(6-Phenyl-1,2,3,4-tetrahydronaphthalene-2-carbonyl)oxazole-5-carbonitrile]	62 nM
COC(=O)c1cccc(-c2cnc(C(=O)C3CCc4cc(OCc5ccccc5)ccc4C3)o2)n1 (single isomer, unassigned) [(R)-19, Methyl 6-(2-(6-(Benzyloxy)-1,2,3,4-tetrahydronaphthalene-2-carbonyl)oxazol-5-yl)picolinate]	4500 nM
COC(=O)c1cnc(C(=O)C2CCc3cc(-c4ccccc4)ccc3C2)o1 (single isomer, unassigned) [(R)-4, Methyl 2-(6-Phenyl-1,2,3,4-tetrahydronaphthalene-2-carbonyl)oxazole-5-carboxylate]	1400 nM
COC(=O)c1cccc(-c2cnc(C(=O)C3CCc4cc(Oc5ccccc5)ccc4C3)o2)n1 (single isomer, unassigned) [(R)-13, Methyl 6-(2-(6-Phenoxy-1,2,3,4-tetrahydronaphthalene-2-carbonyl)oxazol-5-yl)picolinate]	870 nM
O=C(c1ncc(-c2ccccn2)o1)C1CCc2cc(-c3ccccc3)ccc2C1 (single isomer, unassigned) [(R)-6, (6-Phenyl-1,2,4-tetrahydronaphthalen-2-yl)(5-(pyridin-2-yl)oxazol-2-yl)methanone]	240 nM
N#Cc1cnc(C(=O)C2CCc3cc(OCc4ccccc4)ccc3C2)o1 (single isomer, unassigned) [(R)-17, 2-(6-(Benzyloxy)-1,2,3,4-tetrahydronaphthalene-2-carbonyl)oxazole-5-carbonitrile]	120 nM
N#Cc1cnc(C(=O)C2CCc3cc(Oc4ccccc4)ccc3C2)o1 (single isomer, unassigned) [(R)-11, 2-(6-Phenoxy-1,2,3,4-tetrahydronaphthalene-2-carbonyl)oxazole-5-carbonitrile]	54 nM

Same assay, conditions: Ki, Table 2, (S)-enantiomer, 1,2,3,4-tetrahydronaphthalene C2 acyl side chain

Structure (SMILES)	Ki
O=C(O)c1cccc(-c2cnc(C(=O)C3CCc4cc(-c5ccccc5)ccc4C3)o2)n1 (single isomer, unassigned) [(S)-8, 6-(2-(6-Phenyl-1,2,3,4-tetrahydronaphthalene-2-carbonyl)oxazol-5-yl)picolinic acid]	39 nM
O=C(c1ncco1)C1CCc2cc(-c3ccccc3)ccc2C1 (single isomer, unassigned) [(S)-3, Oxazol-2-yl(6-phenyl-1,2,3,4-tetrahydronaphthalen-2-yl)methanone]	57 nM
O=C(c1ncco1)C1CCc2cc(OCc3ccccc3)ccc2C1 (single isomer, unassigned) [(S)-15, (6-(Benzyloxy)-1,2,3,4-tetrahydronaphthalen-2-yl)(oxazol-2-yl)methanone]	6.1 nM
COC(=O)c1cnc(C(=O)C2CCc3cc(-c4ccccc4)ccc3C2)o1 (single isomer, unassigned) [(S)-4, Methyl 2-(6-Phenyl-1,2,3,4-tetrahydronaphthalene-2-carbonyl)oxazole-5-carboxylate]	55 nM
O=C(c1ncco1)C1CCc2cc(Oc3ccccc3)ccc2C1 (single isomer, unassigned) [(S)-9, Oxazol-2-yl(6-phenoxy-1,2,3,4-tetrahydronaphthalen-2-yl)methanone]	2.2 nM
O=C(c1ncc(-c2ccccn2)o1)C1CCc2cc(Oc3ccccc3)ccc2C1 (single isomer, unassigned) [(S)-12, (6-Phenoxy-1,2,3,4-tetrahydronaphthalen-2-yl)(5-(pyridin-2-yl)oxazol-2-yl)methanone]	4.4 nM
COC(=O)c1cccc(-c2cnc(C(=O)C3CCc4cc(OCc5ccccc5)ccc4C3)o2)n1 (single isomer, unassigned) [(S)-19, Methyl 6-(2-(6-(Benzyloxy)-1,2,3,4-tetrahydronaphthalene-2-carbonyl)oxazol-5-yl)picolinate]	18 nM
O=C(c1ncc(-c2ccccn2)o1)C1CCc2cc(OCc3ccccc3)ccc2C1 (single isomer, unassigned) [(S)-18, (6-(Benzyloxy)-1,2,3,4-tetrahydronaphthalen-2-yl)(5-(pyridin-2-yl)oxazol-2-yl)methanone]	3.2 nM

Same assay, conditions: Ki, Table 3, (R)-enantiomer, indane C2 acyl side chain

Structure (SMILES)	Ki
COC(=O)c1cccc(-c2cnc(C(=O)C3Cc4ccc(Oc5ccccc5)cc4C3)o2)n1 (single isomer, unassigned) [(R)-28]	790 nM
O=C(c1ncco1)C1Cc2ccc(-c3ccccc3)cc2C1 (single isomer, unassigned) [(R)-22, Oxazol-2-yl(5-phenylindan-2-yl)methanone]	140 nM
O=C(O)c1cccc(-c2cnc(C(=O)C3Cc4ccc(OCc5ccccc5)cc4C3)o2)n1 (single isomer, unassigned) [(R)-33, 6-(2-(5-(Benzyloxy)indane-2-carbonyl)oxazol-5-yl)picolinic acid]	660 nM

Same assay, conditions: Ki, Table 3, racemate (enantiomers not separable), indane C2 acyl side chain

Structure (SMILES)	Ki
COC(=O)c1cccc(-c2cnc(C(=O)C3Cc4ccc(-c5ccccc5)cc4C3)o2)n1 (racemic) [Compound 24, Methyl 6-[2-(5-Phenylindane-2-carbonyl)oxazol-5-yl]pyridine-2-carboxylate]	6.2 nM
O=C(O)c1cccc(-c2cnc(C(=O)C3Cc4ccc(-c5ccccc5)cc4C3)o2)n1 (racemic) [Compound 25, 6-[2-(5-Phenylindane-2-carbonyl)oxazol-5-yl]pyridine-2-carboxylic Acid]	57 nM

Same assay, conditions: Ki, Table 3, tentatively assigned (S)-enantiomer, indane C2 acyl side chain

Structure (SMILES)	Ki
O=C(c1ncc(-c2ccccn2)o1)C1Cc2ccc(-c3ccccc3)cc2C1 (single isomer, unassigned) [(S)-23, (5-Phenylindan-2-yl)-(5-(pyridin-2-yl)oxazol-2-yl)methanone]	1.9 nM

Same assay, conditions: Ki, Table 4, (R)-enantiomer, additional FAAH inhibitors

Structure (SMILES)	Ki
COC(=O)c1nnc(C(=O)C2CCc3cc(Oc4ccccc4)ccc3C2)o1 (single isomer, unassigned) [(R)-35, Methyl 5-(6-Phenoxy-1,2,3,4-tetrahydronaphthalene-2-carbonyl)-[1,3,4]oxadiazole-2-carboxylate]	1.6 nM
O=C(c1nnc(-c2ccccn2)o1)C1CCc2cc(Oc3ccccc3)ccc2C1 (single isomer, unassigned) [(R)-36, (6-Phenoxy-1,2,3,4-tetrahydronaphthalen-2-yl)(5-(pyridin-2-yl)-1,3,4-oxadiazol-2-yl)methanone]	6.3 nM
O=C(c1ncco1)C1CCc2ccccc2C1 (single isomer, unassigned) [(R)-37, Oxazol-2-yl(1,2,3,4-tetrahydronaphthalen-2-yl)methanone]	12000 nM

Same assay, conditions: Ki, Table 4, (S)-enantiomer, additional FAAH inhibitors

Structure (SMILES)	Ki
O=C(c1nnco1)C1CCc2cc(Oc3ccccc3)ccc2C1 (single isomer, unassigned) [(S)-34, (1,3,4-Oxadlazol-2-yl)(6-phenoxy-1,2,3,4-tetrahydronaphthalen-2-yl)methanone]	0.5 nM

Same assay, conditions: Table 4, meso indane derivatives without aryl substituent; read-out: Ki

Structure (SMILES)	Ki
O=C(c1ncco1)C1Cc2ccccc2C1 [Compound 39, (Indan-2-yl)(oxazol-2-yl)methanone]	7100 nM
